Measured values taken from patent publication US9695155B2, “Herbicidal substituted pyrimidinyloxy benzene compounds” (E. I. DU PONT DE NEMOURS AND COMPANY, priority 2013, dated 2017).

Columns and labels:
johnsongrass [1] = experiment: Test C preemergence; assay type: in vivo, Sorghum halepense; conditions: for Johnsongrass plant response rating: preemergence; for Plant response rating, Johnsongrass: Preemergence, 31 g ai/ha, scale 0 to 100, 0 no effect, 100 complete control
Procedure, shortened: (§1)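 Seeds are planted in blended loam soil and sand and treated preemergence, while seedlings in a peat moss/vermiculite medium receive postemergence sprays at 2 to 18 cm height. All plants stay in the greenhouse for 13 to 15 days before visual comparison with controls on a 0–100 scale.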

corn [2] = experiment: Test A postemergence; assay type: in vivo, Zea mays
Procedure, shortened: (§2)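 Pre- and postemergence greenhouse screen. Soil: loam + sand. Spray carrier: solvent mixture, non-phytotoxic, with surfactant. Post timing at 1–2 leaves, height 2–10 cm. Readout: visual injury on a 0–100 scale roughly 10 days after application, untreated plants as reference.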

velvetleaf = experiment: Test A preemergence; assay type: in vivo, Abutilon theophrasti; conditions: for Plant response rating, Velvetleaf: 125 g ai/ha, 0 to 100 scale where 0 is no effect and 100 is complete control
Procedure, shortened: as §2

large (Lg) crabgrass [3] = experiment: Test C preemergence; assay type: in vivo, Digitaria sanguinalis; conditions: for Crabgrass, Large plant response rating: preemergence; for Plant response rating, Crabgrass, Large: Preemergence, 31 g ai/ha, scale 0 to 100, 0 no effect, 100 complete control
Procedure, shortened: as §1

johnsongrass [4] = experiment: Test C postemergence; assay type: in vivo, Sorghum halepense; conditions: for Plant response rating, Johnsongrass: Postemergence
Procedure, shortened: as §1

corn [5] = experiment: Test C postemergence; assay type: in vivo, Zea mays; conditions: for Plant response rating, Corn: Postemergence
Procedure, shortened: as §1

kochia = experiment: Test C postemergence; assay type: in vivo, Kochia scoparia; conditions: for Plant response rating, Kochia: Postemergence
Procedure, shortened: as §1

barnyardgrass = experiment: Test A preemergence; assay type: in vivo, Echinochloa crus-galli; conditions: for Plant response rating, Barnyardgrass: 125 g ai/ha, 0 to 100 scale where 0 is no effect and 100 is complete control; for Barnyardgrass plant response rating: 500 g ai/ha, 0 to 100 scale, 0 no effect, 100 complete control, approx. 10 days
Procedure, shortened: as §2

ragweed = experiment: Test C preemergence; assay type: in vivo, Ambrosia elatior; conditions: for Ragweed plant response rating: preemergence
Procedure, shortened: as §1

chickweed = experiment: Test C postemergence; assay type: in vivo, Stellaria media; conditions: for Plant response rating, Chickweed: Postemergence
Procedure, shortened: as §1

giant foxtail [6] = experiment: Test C postemergence; assay type: in vivo, Setaria faberii; conditions: for Plant response rating, Foxtail, Giant: Postemergence
Procedure, shortened: as §1

lambsquarters = experiment: Test C preemergence; assay type: in vivo, Chenopodium album; conditions: for Lambsquarters plant response rating: preemergence; for Plant response rating, Lambsquarters: Preemergence, 31 g ai/ha, scale 0 to 100, 0 no effect, 100 complete control
Procedure, shortened: as §1

large (Lg) crabgrass [7] = experiment: Test A postemergence; assay type: in vivo, Digitaria sanguinalis
Procedure, shortened: as §2

galium = experiment: Test C postemergence; assay type: in vivo, Galium aparine; conditions: for Plant response rating, Galium: Postemergence
Procedure, shortened: as §1

giant foxtail [8] = experiment: Test A postemergence; assay type: in vivo, Setaria faberii; conditions: 0 to 100 scale where 0 is no effect and 100 is complete control
Procedure, shortened: as §2

pigweed [9] = experiment: Test A postemergence; assay type: in vivo, Amaranthus retroflexus; conditions: 0 to 100 scale where 0 is no effect and 100 is complete control
Procedure, shortened: as §2

pigweed [10] = experiment: Test A preemergence; assay type: in vivo, Amaranthus retroflexus; conditions: for Plant response rating, Pigweed: 125 g ai/ha, 0 to 100 scale where 0 is no effect and 100 is complete control; for Pigweed plant response rating: 500 g ai/ha, 0 to 100 scale, 0 no effect, 100 complete control, approx. 10 days
Procedure, shortened: as §2

morningglory = experiment: Test A postemergence; assay type: in vivo, Ipomoea spp.; conditions: 0 to 100 scale where 0 is no effect and 100 is complete control
Procedure, shortened: as §2

[11] = 62 g ai/ha, scale 0 (no effect) to 100 (complete control)
[12] = 125 g ai/ha, scale 0 (no effect) to 100 (complete control)
[13] = 250 g ai/ha, scale 0 (no effect) to 100 (complete control)
[14] = 125 g ai/ha, 0 to 100 scale where 0 is no effect and 100 is complete control
[15] = 500 g ai/ha, 0 to 100 scale, 0 no effect, 100 complete control
[16] = 31 g ai/ha, scale 0 to 100 (0 no effect, 100 complete control), 13 to 15 days
[17] = 62 g ai/ha, scale 0 to 100 (0 no effect, 100 complete control)
[18] = 16 g ai/ha, scale 0 to 100 (0 no effect, 100 complete control)
[19] = 500 g ai/ha, 0 to 100 scale where 0 is no effect and 100 is complete control
[20] = 16 g ai/ha, postemergence, visual rating, scale 0 to 100 (0 no effect, 100 complete control), 13 to 15 days

N#Cc1cccc(Oc2ncc(F)cn2)c1-n1cc(Cl)cn1 [Compound 73]
Johnsongrass plant response rating (johnsongrass [1]; [11]): 35 | Johnsongrass plant response rating (johnsongrass [1]; [12]): 75 | Johnsongrass plant response rating (johnsongrass [1]; [13]): 98 | Plant response rating, Johnsongrass (johnsongrass [1]): 10 | Plant response rating, Corn (corn [2]; [14]): 40 | Plant response rating, Corn (corn [2]; [15]): 80 | Plant response rating, Velvetleaf (velvetleaf): 100 | Velvetleaf plant response rating (velvetleaf; 500 g ai/ha, 0 to 100 scale, 0 no effect, 100 complete control, approx. 10 days): 100 | Crabgrass, Large plant response rating (large (Lg) crabgrass [3]; [11]): 100 | Crabgrass, Large plant response rating (large (Lg) crabgrass [3]; [12]): 100 | Crabgrass, Large plant response rating (large (Lg) crabgrass [3]; [13]): 100 | Plant response rating, Crabgrass, Large (large (Lg) crabgrass [3]): 100 | Plant response rating (0 to 100), Johnsongrass (johnsongrass [4]; 125 g ai/ha, postemergence): 5 | Plant response rating (0 to 100), Johnsongrass (johnsongrass [4]; 250 g ai/ha, postemergence): 25 | Plant response rating, Johnsongrass (johnsongrass [4]; [16]): 0 | Plant response rating, Johnsongrass (johnsongrass [4]; [17]): 5 | Plant response rating (0 to 100), Corn (corn [5]; 125 g ai/ha, postemergence): 10 | Plant response rating (0 to 100), Corn (corn [5]; 250 g ai/ha, postemergence): 10 | Plant response rating, Corn (corn [5]; [16]): 5 | Plant response rating, Corn (corn [5]; [17]): 5 | Plant response rating (0 to 100), Kochia (kochia; 125 g ai/ha, postemergence): 90 | Plant response rating (0 to 100), Kochia (kochia; 250 g ai/ha, postemergence): 90 | Plant response rating, Kochia (kochia; [16]): 80 | Plant response rating, Kochia (kochia; [17]): 85 | Plant response rating, Barnyardgrass (barnyardgrass): 90 | Barnyardgrass plant response rating (barnyardgrass): 100 | Ragweed plant response rating (ragweed; [11]): 75 | Ragweed plant response rating (ragweed; [12]): 85 | Ragweed plant response rating (ragweed; [13]): 85 | Plant response rating (0 to 100), Chickweed (chickweed; 125 g ai/ha, postemergence): 50 | Plant response rating (0 to 100), Chickweed (chickweed; 250 g ai/ha, postemergence): 80 | Plant response rating, Chickweed (chickweed; [16]): 50 | Plant response rating, Chickweed (chickweed; [17]): 50 | Plant response rating (0 to 100), Foxtail, Giant (giant foxtail [6]; 125 g ai/ha, postemergence): 10 | Plant response rating (0 to 100), Foxtail, Giant (giant foxtail [6]; 250 g ai/ha, postemergence): 30 | Plant response rating, Foxtail, Giant (giant foxtail [6]; [16]): 0 | Plant response rating, Foxtail, Giant (giant foxtail [6]; [17]): 5 | Lambsquarters plant response rating (lambsquarters; [11]): 98 | Lambsquarters plant response rating (lambsquarters; [12]): 98 | Lambsquarters plant response rating (lambsquarters; [13]): 98 | Plant response rating, Lambsquarters (lambsquarters): 60 | Plant response rating, Crabgrass, Large (large (Lg) crabgrass [7]; [14]): 90 | Plant response rating, Crabgrass, Large (large (Lg) crabgrass [7]; [15]): 100 | Plant response rating (0 to 100), Galium (galium; 125 g ai/ha, postemergence): 70 | Plant response rating (0 to 100), Galium (galium; 250 g ai/ha, postemergence): 70 | Plant response rating, Galium (galium; [16]): 40 | Plant response rating, Galium (galium; [17]): 55 | Plant response rating, Foxtail, Giant (giant foxtail [8]; 125 g ai/ha): 90 | Plant response rating, Foxtail, Giant (giant foxtail [8]; 500 g ai/ha): 100 | Plant response rating, Pigweed (pigweed [9]; 125 g ai/ha): 100 | Plant response rating, Pigweed (pigweed [9]; 500 g ai/ha): 100 | Plant response rating, Pigweed (pigweed [10]): 100 | Pigweed plant response rating (pigweed [10]): 100 | Plant response rating, Morningglory (morningglory; 125 g ai/ha): 90 | Plant response rating, Morningglory (morningglory; 500 g ai/ha): 100

CCOc1cnn(-c2c(C#N)cccc2Oc2ncc(Cl)cn2)c1 [Compound 92]
Johnsongrass plant response rating (johnsongrass [1]; [18]): 0 | Johnsongrass plant response rating (johnsongrass [1]; [11]): 70 | Johnsongrass plant response rating (johnsongrass [1]; [12]): 85 | Plant response rating, Johnsongrass (johnsongrass [1]): 5 | Plant response rating, Corn (corn [2]; [14]): 50 | Plant response rating, Corn (corn [2]; [19]): 80 | Plant response rating, Velvetleaf (velvetleaf): 100 | Crabgrass, Large plant response rating (large (Lg) crabgrass [3]; [18]): 90 | Crabgrass, Large plant response rating (large (Lg) crabgrass [3]; [11]): 100 | Crabgrass, Large plant response rating (large (Lg) crabgrass [3]; [12]): 100 | Plant response rating, Crabgrass, Large (large (Lg) crabgrass [3]): 100 | Johnsongrass plant response rating (johnsongrass [4]; [20]): 0 | Plant response rating (0 to 100), Johnsongrass (johnsongrass [4]; 125 g ai/ha, postemergence): 5 | Plant response rating, Johnsongrass (johnsongrass [4]; [16]): 0 | Plant response rating, Johnsongrass (johnsongrass [4]; [17]): 5 | Corn plant response rating (corn [5]; [20]): 5 | Plant response rating (0 to 100), Corn (corn [5]; 125 g ai/ha, postemergence): 5 | Plant response rating, Corn (corn [5]; [16]): 5 | Plant response rating, Corn (corn [5]; [17]): 5 | Kochia plant response rating (kochia; [20]): 40 | Plant response rating (0 to 100), Kochia (kochia; 125 g ai/ha, postemergence): 85 | Plant response rating, Kochia (kochia; [16]): 60 | Plant response rating, Kochia (kochia; [17]): 80 | Plant response rating, Barnyardgrass (barnyardgrass): 60 | Barnyardgrass plant response rating (barnyardgrass): 100 | Ragweed plant response rating (ragweed; [18]): 10 | Ragweed plant response rating (ragweed; [11]): 50 | Ragweed plant response rating (ragweed; [12]): 85 | Plant response rating, Ragweed (ragweed; Preemergence, 31 g ai/ha, scale 0 to 100, 0 no effect, 100 complete control): 5 | Chickweed plant response rating (chickweed; [20]): 50 | Plant response rating (0 to 100), Chickweed (chickweed; 125 g ai/ha, postemergence): 70 | Plant response rating, Chickweed (chickweed; [16]): 60 | Plant response rating, Chickweed (chickweed; [17]): 60 | Foxtail, Giant plant response rating (giant foxtail [6]; [20]): 5 | Plant response rating (0 to 100), Foxtail, Giant (giant foxtail [6]; 125 g ai/ha, postemergence): 10 | Plant response rating, Foxtail, Giant (giant foxtail [6]; [16]): 5 | Plant response rating, Foxtail, Giant (giant foxtail [6]; [17]): 5 | Lambsquarters plant response rating (lambsquarters; [18]): 65 | Lambsquarters plant response rating (lambsquarters; [11]): 100 | Lambsquarters plant response rating (lambsquarters; [12]): 98 | Plant response rating, Lambsquarters (lambsquarters): 98 | Plant response rating, Crabgrass, Large (large (Lg) crabgrass [7]; [14]): 80 | Plant response rating, Crabgrass, Large (large (Lg) crabgrass [7]; [19]): 90 | Galium plant response rating (galium; [20]): 70 | Plant response rating (0 to 100), Galium (galium; 125 g ai/ha, postemergence): 80 | Plant response rating, Galium (galium; [16]): 80 | Plant response rating, Galium (galium; [17]): 65 | Plant response rating, Foxtail, Giant (giant foxtail [8]; 125 g ai/ha): 80 | Plant response rating, Foxtail, Giant (giant foxtail [8]; 500 g ai/ha): 90 | Plant response rating, Pigweed (pigweed [9]; 125 g ai/ha): 100 | Plant response rating, Pigweed (pigweed [9]; 500 g ai/ha): 100 | Plant response rating, Pigweed (pigweed [10]): 100 | Pigweed plant response rating (pigweed [10]): 100 | Plant response rating, Morningglory (morningglory; 125 g ai/ha): 100 | Plant response rating, Morningglory (morningglory; 500 g ai/ha): 100
